According to ChEMBL document CHEMBL5154943, “Crystallography-Guided Optimizations of the Keap1-Nrf2 Inhibitors on the Solvent Exposed Region: From Symmetric to Asymmetric Naphthalenesulfonamides” (J Med Chem, 2022):
In brackets after ≈: the same amount, converted by molar mass. Activity calls are given as the source filed them. The rule behind the calls is not given here.

Key:
Keap1/Nrf2 = Keap1/Nrf2 (Homo sapiens, UniProt Q14145); test: Inhibition of recombinant N-terminal His6-tagged human Keap1-Nrf2 (322 to 609 residues) (unknown origin) protein-protein interaction expressed in Escherichia coli (DE3) incubated for 60 mins by fluorescence anisotropy assay
Peritoneal macrophage [1] = test: Cytotoxicity against mouse peritoneal macrophages assessed as reduction in cell viability measured after 24 hrs by Cell Titer-Blue assay; assay type: functional
[2] = Aqueous solubility of the compound in PBS at pH 7.4 after 24 hrs by HPLC-UV analysis; assay type: physicochemical
[3] = Aqueous solubility of the compound in PBS at pH 2 after 24 hrs by HPLC-UV analysis; assay type: physicochemical
[4] = Aqueous solubility of the compound in PBS at pH 7 after 24 hrs by HPLC-UV analysis; assay type: physicochemical
Peritoneal macrophage [5] = test: Antiinflammatory activity against LPS-induced mouse peritoneal macrophage assessed as suppression of NO level at 10 uM pretreated with LPS followed by compound addition and measured after 24 hrs by Griess reagent based assay; assay type: functional, cell-based
Peritoneal macrophage [6] = test: Antiinflammatory activity against LPS-induced mouse peritoneal macrophage assessed as suppression of ROS level at 10 uM pretreated with LPS followed by compound addition and measured after 6 hrs by DCFH-DA staining based fluorescence analysis; assay type: functional, cell-based
Peritoneal macrophage [7] = test: Antiinflammatory activity against LPS-induced mouse peritoneal macrophage assessed as inhibition of TNF alpha level at 10 uM after 4 hrs by ELISA method; assay type: functional, cell-based
Mus musculus [8] = test: Antiinflammatory activity against ip dosed LPS-induced ALI C57BL/6J mouse model assessed as reduction in IL-1beta mRNA expression in BALF administered 0.5 hr prior to LPS stimulation by RT-qPCR method; assay type: functional, organism-based; conditions: dose 5-20 mg/kg, DDE = dose-dependent effect
Mus musculus [9] = test: In vivo inhibition of Keap1-Nrf2 interaction in LPS-induced acute lung injury C57BL/6J mouse model assessed as increase in Nrf2 nuclear translocation in lungs by measuring increase in nuclear Nrf2 level treated intraperitoneally at 0.5 hrs before LPS stimulation by Western blot analysis; assay type: functional, organism-based; conditions: dose 5-20 mg/kg, route ip, DDE = dose-dependent effect
Mus musculus [10] = test: Antiinflammatory activity against ip dosed LPS-induced ALI C57BL/6J mouse model assessed as reduction in IL-6 level in BALF administered 0.5 hr prior to LPS stimulation by ELISA method; assay type: functional, organism-based; conditions: dose 5-20 mg/kg, DDE = dose-dependent effect
Mus musculus [11] = test: Antiinflammatory activity against ip dosed LPS-induced ALI C57BL/6J mouse model assessed as reduction in TNF-alpha level in BALF administered 0.5 hr prior to LPS stimulation by ELISA method; assay type: functional, organism-based; conditions: dose 5-20 mg/kg, DDE = dose-dependent effect
Mus musculus [12] = test: Antiinflammatory activity against ip dosed LPS-induced ALI C57BL/6J mouse model assessed as reduction in […] level in BALF administered 0.5 hr prior to LPS stimulation by ELISA method; assay type: functional, organism-based; conditions: dose 5-20 mg/kg, DDE = dose-dependent effect
Mus musculus [13] = test: Antiinflammatory activity against ip dosed LPS-induced ALI C57BL/6J mouse model assessed as reduction in TNF-alpha mRNA expression in BALF administered 0.5 hr prior to LPS stimulation by RT-qPCR method; assay type: functional, organism-based; conditions: dose 5-20 mg/kg, DDE = dose-dependent effect
Mus musculus [14] = test: In vivo inhibition of Keap1-Nrf2 interaction in LPS-induced acute lung injury C57BL/6J mouse model assessed as increase in Nrf2 nuclear translocation in lungs by measuring decrease in cytosolic Nrf2 level treated intraperitoneally at 0.5 hrs before LPS stimulation by Western blot analysis; assay type: functional, organism-based; conditions: dose 5-20 mg/kg, route ip, DDE = dose-dependent effect
Mus musculus [15] = test: Antiinflammatory activity against ip dosed LPS-induced ALI C57BL/6J mouse model assessed as reduction in IL-6 mRNA expression in BALF administered 0.5 hr prior to LPS stimulation by RT-qPCR method; assay type: functional, organism-based; conditions: dose 5-20 mg/kg, DDE = dose-dependent effect

Sequence of Keap1/Nrf2 (Q16236 whole entry, the tested form may be a part): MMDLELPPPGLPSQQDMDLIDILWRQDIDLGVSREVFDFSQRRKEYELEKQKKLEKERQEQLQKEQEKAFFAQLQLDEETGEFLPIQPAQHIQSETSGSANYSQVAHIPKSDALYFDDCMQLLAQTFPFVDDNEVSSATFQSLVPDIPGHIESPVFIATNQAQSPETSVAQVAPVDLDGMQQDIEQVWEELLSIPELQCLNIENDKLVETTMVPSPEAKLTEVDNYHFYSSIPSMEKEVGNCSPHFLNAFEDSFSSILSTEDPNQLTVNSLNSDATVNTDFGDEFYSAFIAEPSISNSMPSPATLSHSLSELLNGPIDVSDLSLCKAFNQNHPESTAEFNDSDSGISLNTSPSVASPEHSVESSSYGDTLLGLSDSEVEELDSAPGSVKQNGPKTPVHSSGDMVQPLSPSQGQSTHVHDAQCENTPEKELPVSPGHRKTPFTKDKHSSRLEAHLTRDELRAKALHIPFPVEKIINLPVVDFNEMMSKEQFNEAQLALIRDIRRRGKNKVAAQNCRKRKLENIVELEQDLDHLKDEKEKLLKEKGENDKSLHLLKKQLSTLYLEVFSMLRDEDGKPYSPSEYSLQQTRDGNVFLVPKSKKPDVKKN
Sequence of Keap1/Nrf2 (Q14145 whole entry, the tested form may be a part): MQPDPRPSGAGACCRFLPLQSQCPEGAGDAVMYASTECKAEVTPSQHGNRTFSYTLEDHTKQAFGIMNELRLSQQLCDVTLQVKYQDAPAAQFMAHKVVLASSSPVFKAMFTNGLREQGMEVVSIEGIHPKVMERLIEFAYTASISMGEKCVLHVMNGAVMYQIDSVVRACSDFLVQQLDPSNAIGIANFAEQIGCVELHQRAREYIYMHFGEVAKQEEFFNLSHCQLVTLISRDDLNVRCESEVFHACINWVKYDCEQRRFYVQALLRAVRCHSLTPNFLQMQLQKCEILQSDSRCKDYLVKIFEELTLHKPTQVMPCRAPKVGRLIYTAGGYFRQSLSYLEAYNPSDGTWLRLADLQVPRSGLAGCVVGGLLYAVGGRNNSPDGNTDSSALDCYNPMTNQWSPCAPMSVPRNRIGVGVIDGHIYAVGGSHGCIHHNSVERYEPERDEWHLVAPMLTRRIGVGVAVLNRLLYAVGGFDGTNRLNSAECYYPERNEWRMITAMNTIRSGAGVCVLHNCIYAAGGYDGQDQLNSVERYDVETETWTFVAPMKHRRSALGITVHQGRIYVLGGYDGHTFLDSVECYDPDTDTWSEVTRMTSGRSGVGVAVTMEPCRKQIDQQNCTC

| SMILES | Kd (Keap1/Nrf2) [nM] | solubility at 24 h [2] [µg/mL] | solubility at 24 h [3] [µg/mL] | solubility at 24 h [4] [µg/mL] | CC50 (Peritoneal macrophage [1]) [nM] | further results |
| --- | --- | --- | --- | --- | --- | --- |
| COc1ccc(S(=O)(=O)N(CC(N)=O)c2ccc(N(CC(N)=O)S(=O)(=O)c3ccc(NC(=O)CN4CCC(C)CC4)cc3)c3ccccc23)cc1 | 6110 | – | – | – | > 50000 | – |
| CCC(=O)Nc1ccc(S(=O)(=O)N(CC(N)=O)c2ccc(N(CC(N)=O)S(=O)(=O)c3ccc(OC)cc3)c3ccccc23)cc1 | 2810 | – | – | – | > 50000 | – |
| COc1ccc(S(=O)(=O)N(CC(N)=O)c2ccc(N(CC(N)=O)S(=O)(=O)c3ccc(NC(=O)CN4CCN(C(C)C)CC4)cc3)c3ccccc23)cc1 | 1450 | – | – | – | > 100000 | – |
| COc1ccc(S(=O)(=O)N(CC(N)=O)c2ccc(N(CC(N)=O)S(=O)(=O)c3ccc(NC(=O)CN4CCSCC4)cc3)c3ccccc23)cc1 | 8940 | – | – | – | > 100000 | – |
| CC(=O)O.CCN1CCN(CCC(=O)Nc2ccc(S(=O)(=O)N(CC(N)=O)c3ccc(N(CC(N)=O)S(=O)(=O)c4ccc(OC)cc4)c4ccccc34)cc2)CC1 | – | 77.9 | 926 | 120 | – | – |
| COc1ccc(S(=O)(=O)N(CC(N)=O)c2ccc(N(CC(N)=O)S(=O)(=O)c3ccc(NC(C)=O)cc3)c3ccccc23)cc1 | 1760 | – | – | – | > 50000 | Activity (Peritoneal macrophage [5]): Active; Activity (Peritoneal macrophage [6]): Active; Activity (Peritoneal macrophage [7]): Active |
| COc1ccc(S(=O)(=O)N(CC(N)=O)c2ccc(N(CC(N)=O)S(=O)(=O)c3ccc(NC(=O)CN4CCOCC4)cc3)c3ccccc23)cc1 | 1350 | – | – | – | > 100000 | – |
| CCCCC(=O)Nc1ccc(S(=O)(=O)N(CC(N)=O)c2ccc(N(CC(N)=O)S(=O)(=O)c3ccc(OC)cc3)c3ccccc23)cc1 | > 10000 | – | – | – | > 100000 | – |
| COc1ccc(S(=O)(=O)N(CC(N)=O)c2ccc(N(CC(N)=O)S(=O)(=O)c3ccc(NC(=O)CCN4CCC(C)CC4)cc3)c3ccccc23)cc1 | 2080 | – | – | – | > 100000 | – |
| CCN1CCN(CCC(=O)Nc2ccc(S(=O)(=O)N(CC(N)=O)c3ccc(N(CC(N)=O)S(=O)(=O)c4ccc(OC)cc4)c4ccccc34)cc2)CC1.O=C(O)C(F)(F)F | – | 105 | 1260 | 135 | – | – |
| COc1ccc(S(=O)(=O)N(CC(N)=O)c2ccc(N(CC(N)=O)S(=O)(=O)c3ccc(NC(=O)CCCN4CCOCC4)cc3)c3ccccc23)cc1 | 1080 | – | – | – | > 100000 | – |
| CCN1CCN(CCC(=O)Nc2ccc(S(=O)(=O)N(CC(N)=O)c3ccc(N(CC(N)=O)S(=O)(=O)c4ccc(OC)cc4)c4ccccc34)cc2)CC1.O=C(O)CCC(=O)O | – | 76.9 | 1080 | 130 | – | – |
| CCN1CCN(CCC(=O)Nc2ccc(S(=O)(=O)N(CC(N)=O)c3ccc(N(CC(N)=O)S(=O)(=O)c4ccc(OC)cc4)c4ccccc34)cc2)CC1 | – | – | – | – | – | Activity (Mus musculus [8]): Dde; Activity (Peritoneal macrophage [5]): Active; Activity (Peritoneal macrophage [6]): Active; Activity (Mus musculus [9]): Dde; Activity (Mus musculus [10]): Dde; Activity (Mus musculus [11]): Dde; Activity (Mus musculus [12]): Dde; Activity (Peritoneal macrophage [7]): Active; Activity (Mus musculus [13]): Dde; Activity (Mus musculus [14]): Dde; Activity (Mus musculus [15]): Dde |
| CCCC(=O)Nc1ccc(S(=O)(=O)N(CC(N)=O)c2ccc(N(CC(N)=O)S(=O)(=O)c3ccc(OC)cc3)c3ccccc23)cc1 | > 10000 | – | – | – | > 100000 | – |
| COc1ccc(S(=O)(=O)N(CC(N)=O)c2ccc(N(CC(N)=O)S(=O)(=O)c3ccc(NC(=O)CCN4CCSCC4)cc3)c3ccccc23)cc1 | 2910 | – | – | – | > 50000 | – |
| COc1ccc(S(=O)(=O)N(CC(N)=O)c2ccc(N(CC(N)=O)S(=O)(=O)c3ccc(NC(=O)CCN4CCCCC4)cc3)c3ccccc23)cc1 | 1420 | – | – | – | > 100000 | – |
| COc1ccc(S(=O)(=O)N(CC(N)=O)c2ccc(N(CC(N)=O)S(=O)(=O)c3ccc(NC(=O)CN4CCCCC4)cc3)c3ccccc23)cc1 | 6640 | – | – | – | > 100000 | – |
| CCN1CCN(CC(=O)Nc2ccc(S(=O)(=O)N(CC(N)=O)c3ccc(N(CC(N)=O)S(=O)(=O)c4ccc(OC)cc4)c4ccccc34)cc2)CC1 | 480 | – | – | – | > 100000 | – |
| COc1ccc(S(=O)(=O)N(CC(N)=O)c2ccc(N(CC(N)=O)S(=O)(=O)c3ccc(N)cc3)c3ccccc23)cc1 | – | 33.6 (≈ 56.2 µM) | 47.5 (≈ 79.5 µM) | 55.4 (≈ 92.7 µM) | – | – |

More lines, main results first:

| Kd (Keap1/Nrf2) [nM] | solubility at 24 h [2] [µg/mL] | solubility at 24 h [3] [µg/mL] | solubility at 24 h [4] [µg/mL] | SMILES | CC50 (Peritoneal macrophage [1]) [nM] | further results |
| --- | --- | --- | --- | --- | --- | --- |
| 710 | – | – | – | COc1ccc(S(=O)(=O)N(CC(N)=O)c2ccc(N(CC(N)=O)S(=O)(=O)c3ccc(NC(=O)CCN4CCN(C(C)C)CC4)cc3)c3ccccc23)cc1 | > 100000 | – |
| – | 40.7 | 532 | 58.6 | Br.Br.COc1ccc(S(=O)(=O)N(CC(N)=O)c2ccc(N(CC(N)=O)S(=O)(=O)c3ccc(N)cc3)c3ccccc23)cc1 | – | – |
| 580 | – | – | – | CCN1CCN(CCCC(=O)Nc2ccc(S(=O)(=O)N(CC(N)=O)c3ccc(N(CC(N)=O)S(=O)(=O)c4ccc(OC)cc4)c4ccccc34)cc2)CC1 | > 100000 | – |
| – | 47.7 | 1570 | 151 | CCN1CCN(CCC(=O)Nc2ccc(S(=O)(=O)N(CC(N)=O)c3ccc(N(CC(N)=O)S(=O)(=O)c4ccc(OC)cc4)c4ccccc34)cc2)CC1.Cl | – | – |
| 1480 | – | – | – | COc1ccc(S(=O)(=O)N(CC(N)=O)c2ccc(N(CC(N)=O)S(=O)(=O)c3ccc(NC(=O)CCCN4CCN(C(C)C)CC4)cc3)c3ccccc23)cc1 | > 100000 | – |
| – | 80.5 | 1050 | 122 | CCN1CCN(CCC(=O)Nc2ccc(S(=O)(=O)N(CC(N)=O)c3ccc(N(CC(N)=O)S(=O)(=O)c4ccc(OC)cc4)c4ccccc34)cc2)CC1.O=C(O)/C=C\C(=O)O | – | – |
| – | 130 | 1460 | 170 | Br.CCN1CCN(CCC(=O)Nc2ccc(S(=O)(=O)N(CC(N)=O)c3ccc(N(CC(N)=O)S(=O)(=O)c4ccc(OC)cc4)c4ccccc34)cc2)CC1 | – | – |
| 2920 | – | – | – | COc1ccc(S(=O)(=O)N(CC(N)=O)c2ccc(N(CC(N)=O)S(=O)(=O)c3ccc(NC(=O)CCCN4CCSCC4)cc3)c3ccccc23)cc1 | > 100000 | – |
| 1030 | – | – | – | COc1ccc(S(=O)(=O)N(CC(N)=O)c2ccc(N(CC(N)=O)S(=O)(=O)c3ccc(NC(=O)CCN4CCOCC4)cc3)c3ccccc23)cc1 | > 100000 | Activity (Peritoneal macrophage [5]): Active; Activity (Peritoneal macrophage [6]): Active; Activity (Peritoneal macrophage [7]): Active |
| – | 72.5 | 1030 | 129 | CCN1CCN(CCC(=O)Nc2ccc(S(=O)(=O)N(CC(N)=O)c3ccc(N(CC(N)=O)S(=O)(=O)c4ccc(OC)cc4)c4ccccc34)cc2)CC1.O=C(O)CC(O)(CC(=O)O)C(=O)O | – | – |
